Measured values from ChEMBL document CHEMBL1201862, “PubChem BioAssay data set” (2004).
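Grown in 96-well plates, cells were treated for 48 hours with each compound at five concentrations. Insufficient inhibition: endpoint recorded as highest concentration tested. The concentration for 50% growth inhibition is given as GI50.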 Calls of active or inactive are those of the source. Rule as the data show it: active = GI50 up to about 1.1 µM and inactive = higher.

Assays:
Experiment in all cases: DTP human tumour cell line panel, 48 h
A498 = tested on: A498
SW-620 = tested on: SW-620
SF-295 = tested on: SF-295
SF-268 = tested on: SF-268
A549 = tested on: A549
CAKI-1 = tested on: CAKI-1
TK-10 = tested on: TK-10
OVCAR-5 = tested on: OVCAR-5
SN12C = tested on: SN12C
PC-3 = tested on: PC-3
DU-145 = tested on: DU-145
HT-29 = tested on: HT-29
COLO 205 = tested on: COLO 205
HOP-92 = tested on: HOP-92
UO-31 = tested on: UO-31
Hs-578T = tested on: Hs-578T
HCT-116 = tested on: HCT-116
RPMI-8226 = tested on: RPMI-8226

Measured: GI50

O=C(/C=C/c1ccc(Cl)c(Cl)c1)Oc1ccc(/C=C2\CCCCC2=O)cc1
inactive: A498 > 100 µM | SW-620 > 100 µM | SF-295 > 100 µM | SF-268 39 µM | A549 > 100 µM | CAKI-1 > 100 µM | TK-10 > 100 µM | OVCAR-5 > 100 µM | SN12C > 100 µM | PC-3 > 100 µM | DU-145 > 100 µM | HT-29 > 100 µM | COLO 205 > 100 µM | HOP-92 > 100 µM | UO-31 > 100 µM | Hs-578T > 100 µM | HCT-116 > 100 µM | RPMI-8226 67.6 µM

CC1=[N+]([O-])C(C)(C)N(O)C1(C)C
inactive: A498 > 100 µM | SW-620 > 100 µM | SF-295 > 100 µM | SF-268 > 100 µM | A549 > 100 µM | TK-10 > 100 µM | OVCAR-5 > 100 µM | SN12C > 100 µM | PC-3 > 100 µM | DU-145 > 100 µM | HT-29 > 100 µM | COLO 205 > 100 µM | HOP-92 > 100 µM | UO-31 > 100 µM | HCT-116 > 100 µM | RPMI-8226 > 100 µM

CC(C)N1CC2CC(CN(C(=O)c3ccccc3)C2)C1.[O-][Cl+3]([O-])([O-])O
inactive: A498 > 100 µM | SW-620 > 100 µM | SF-295 > 100 µM | SF-268 > 100 µM | A549 > 100 µM | CAKI-1 > 100 µM | TK-10 > 100 µM | OVCAR-5 > 100 µM | SN12C > 100 µM | HT-29 > 100 µM | COLO 205 > 100 µM | HOP-92 > 100 µM | UO-31 > 100 µM | RPMI-8226 > 100 µM

C[C@@H]1O[C@@H]2OCC[C@@H]2C2=C1C(=O)c1ccccc1C2=O
inactive: A498 18 µM | SW-620 4.04 µM | SF-295 15.8 µM | SF-268 4.97 µM | A549 19 µM | CAKI-1 15.2 µM | TK-10 19.7 µM | OVCAR-5 1.81 µM | SN12C 6.35 µM | PC-3 3.65 µM | DU-145 9.1 µM | HT-29 40 µM | COLO 205 23.9 µM | HOP-92 4.38 µM | UO-31 10.8 µM | Hs-578T 28.1 µM | RPMI-8226 7.23 µM

O=C(NO)c1ccc(C(=O)NO)cc1
inactive: A498 > 100 µM | SW-620 80.9 µM | SF-295 > 100 µM | SF-268 58.3 µM | A549 > 100 µM | CAKI-1 > 100 µM | TK-10 76 µM | OVCAR-5 > 100 µM | SN12C > 100 µM | PC-3 > 100 µM | DU-145 34.5 µM | HT-29 87.9 µM | COLO 205 49.7 µM | HOP-92 82.2 µM | UO-31 39.3 µM | Hs-578T > 100 µM | HCT-116 56.1 µM | RPMI-8226 30.1 µM

COC1(OC)N=C(N)C2(C#N)C(C)=C3NCN(C)N=C3C12C#N (stereo not drawn)
inactive: A498 > 100 µM | SW-620 > 100 µM | SF-295 > 100 µM | SF-268 > 100 µM | A549 > 100 µM | CAKI-1 > 100 µM | TK-10 > 100 µM | OVCAR-5 > 100 µM | SN12C > 100 µM | PC-3 > 100 µM | DU-145 > 100 µM | HT-29 > 100 µM | COLO 205 > 100 µM | HOP-92 > 100 µM | UO-31 > 100 µM | Hs-578T > 100 µM | HCT-116 > 100 µM | RPMI-8226 > 100 µM

COc1ccc2cc(C(=O)NCCc3ccccc3)ccc2c1OC
inactive: A498 37.5 µM | SW-620 > 100 µM | SF-295 69.2 µM | SF-268 54.3 µM | A549 > 100 µM | CAKI-1 > 100 µM | OVCAR-5 > 100 µM | SN12C > 100 µM | PC-3 91.2 µM | DU-145 > 100 µM | HT-29 67.6 µM | COLO 205 > 100 µM | HOP-92 49.1 µM | Hs-578T 56.4 µM | HCT-116 96.6 µM | RPMI-8226 > 100 µM

COC(=O)/C=C1/SC(/C(=C(/[O-])OC)[n+]2ccc3ccccc3c2)=NC1=O
inactive: A498 > 100 µM | SW-620 > 100 µM | SF-295 > 100 µM | SF-268 > 100 µM | A549 > 100 µM | CAKI-1 > 100 µM | OVCAR-5 > 100 µM | SN12C > 100 µM | PC-3 > 100 µM | DU-145 > 100 µM | HT-29 > 100 µM | COLO 205 > 100 µM | UO-31 > 100 µM | Hs-578T 25.4 µM | HCT-116 > 100 µM | RPMI-8226 > 100 µM

COc1cc(C(=O)C/C(CCC(=O)Nc2ccccc2[N+](=O)[O-])=N\NC(N)=O)ccc1O
inactive: A498 > 100 µM | SW-620 > 100 µM | SF-295 > 100 µM | SF-268 > 100 µM | A549 > 100 µM | CAKI-1 > 100 µM | TK-10 > 100 µM | OVCAR-5 > 100 µM | SN12C > 100 µM | HT-29 > 100 µM | COLO 205 > 100 µM | HOP-92 > 100 µM | UO-31 > 100 µM | HCT-116 > 100 µM | RPMI-8226 > 100 µM

COc1ccc2nc3ccc(OC)cc3c(S(=O)(=O)Cc3ccc([N+](=O)[O-])cc3)c2c1
inactive: A498 > 100 µM | SW-620 > 100 µM | SF-295 61.5 µM | SF-268 85.5 µM | A549 > 100 µM | CAKI-1 > 100 µM | TK-10 > 100 µM | OVCAR-5 > 100 µM | SN12C > 100 µM | PC-3 > 100 µM | DU-145 > 100 µM | HT-29 68.7 µM | COLO 205 > 100 µM | HOP-92 > 100 µM | UO-31 > 100 µM | HCT-116 > 100 µM

O=[N+]([O-])c1cc2c(c3nonc13)OCCCCO2
inactive: A498 24.9 µM | SW-620 5.86 µM | SF-295 17.5 µM | SF-268 3.37 µM | A549 10.3 µM | CAKI-1 14.3 µM | TK-10 21.8 µM | OVCAR-5 12.1 µM | SN12C 4.6 µM | PC-3 14.9 µM | DU-145 15 µM | HT-29 3.88 µM | COLO 205 4.95 µM | HOP-92 12.7 µM | UO-31 4.19 µM | Hs-578T 12.3 µM | HCT-116 1.75 µM | RPMI-8226 3.7 µM

C/C(Sc1ccccc1)=C1/CCCN(Cc2ccccc2)C1
inactive: A498 37.8 µM | SW-620 28.9 µM | SF-295 17.4 µM | SF-268 36.1 µM | A549 32.7 µM | CAKI-1 24.9 µM | TK-10 18.6 µM | OVCAR-5 23.7 µM | PC-3 21.9 µM | DU-145 47.5 µM | HT-29 35.6 µM | COLO 205 17.5 µM | HOP-92 17.5 µM | UO-31 15.3 µM | Hs-578T 16.3 µM | RPMI-8226 14.5 µM
